Test results as given in patent US8017612B2, “Piperazine compound and use thereof as a HCV polymerase inhibitor” (priority 2006, dated 2011).
Counter-ions that a name gives are not always drawn.

Assays:
[1] = target: T1, HCV polymerase (NS5B) type 1b (Hepatitis C virus genotype 1b, UniProt P26663); experiment: Assay of enzyme (HCV polymerase) inhibitory activity, type 1b enzyme; type: biochemical, HCV BK strain (type 1b); conditions: HCV polymerase inhibitory activity (IC50), 1b, type 1b enzyme 0.5 μg/ml, 25° C., 60 min
T1 construct: a region encoding NS5B (J Virol 1991 March, 65(3), 1105-13, 544 amino acids after deletion of 47 amino acids on the C-terminal); 6xHis (C); made in house; host or cells: Escherichia coli
From the text: (§1) The evaluation of the HCV polymerase inhibitory activity of the compound of the present invention is explained in the following. This polymerase is an enzyme coded for by the non-structural protein region called NS5B on the genome RNA of HCV.
(§2) i) Preparation of Enzyme (HCV Polymerase)
(§3) Using, as a template, a cDNA clone corresponding to the full length genome RNA of HCV BK strain (type 1b) obtained from the blood of a patient with hepatitis C, a region encoding NS5B (J Virol 1991 March, 65(3), 1105-13, 544 amino acids after deletion of 47 amino acids on the C-terminal) was amplified by PCR. The objective gene was prepared by adding a 6 His tag {base pair encoding 6 continuous histidine (His)} to the 3′ end thereof and transformed to Escherichia coli. The Escherichia coli capable of producing the objective protein was cultured. The obtained cells were suspended in a buffer solution and crushed in a microfluidizer. The supernatant was obtained by centrifugation and applied to various column chromatographys {mono-S, Sephacryl S-200 (Pharmacia)}, inclusive of metal chelate chromatography, to give a standard enzyme product.
(§4) ii) Synthesis of Substrate RNA
(§5) Using a synthetic primer designed based on the sequence of HCV genomic 3′ untranslated region, a DNA fragment (148 bp) containing polyU and 3′X sequence was entirely synthesized and cloned into plasmid pBluescript SK II(+) (Stratagene). The cDNA encoding full length NS5B, which was prepared in i) above, was digested with restriction enzyme KpnI to give a cDNA fragment containing the nucleotide sequence of from the restriction enzyme cleavage site to the termination codon. This cDNA fragment was inserted into the upstream of 3′ untranslated region of the DNA in pBluescript SK II(+) and ligated. The about 450 bp inserted DNA sequence was used as a template in the preparation of substrate RNA. This plasmid was cleaved immediately after the 3′X sequence, linearized and purified by phenol-chloroform treatment and ethanol precipitation to give DNA.
(§6) RNA was synthesized (37° C., 4 hr) by run-off method using this purified DNA as a template, a promoter of pBluescript SK II(+), MEGAscript RNA synthesis kit (Ambion) and T7 RNA polymerase. DNase I was added and the mixture was incubated for 1 hr. The template DNA was removed by decomposition to give a crude RNA product. This crude product was treated with phenol-chloroform and purified by ethanol precipitation to give the objective substrate RNA.
(§7) This RNA was applied to urea denaturation polyacrylamide gel electrophoresis to confirm the quality thereof and preserved at −80° C.
(§8) iii) Assay of Enzyme (HCV Polymerase) inhibitory activity
(§9) A test substance (compound of the present invention) and a reaction mixture (30 μl) having the following composition were reacted at 25° C. for 60 min.
(§10) 10% Trichloroacetic acid and 1% sodium pyrophosphate solution (150 μl) at 4° C. was added to this reaction mixture to stop the reaction. The reaction mixture was left standing at 4° C. for 15 min to insolubilize RNA. This RNA was trapped on a glass filter (PerkinElmer, GF/B) upon filtration by suction. This filter was washed with a solution containing 1% trichloroacetic acid and 0.1% sodium pyrophosphate, washed with 90% ethanol and dried. A liquid scintillation cocktail (PerkinElmer) was added and the radioactivity of RNA synthesized by the enzyme reaction was measured on a liquid scintillation counter.
The HCV polymerase inhibitory activity (IC50) of the compound of the present invention was calculated from the values of radioactivity of the enzyme reaction with and without the test substance.
Reaction mixture: HCV polymerase (type 1b 0.5 μg/ml or type 1a 1.5 μg/m) obtained in i), substrate RNA (5 μg/ml) obtained in ii), ATP (50 μM), GTP (50 μM), CTP (50 μM), UTP (2 μM), [5,6-^3H]UTP (30-60 Ci/mmol (Amersham Biosciences), 1 μCi) 20 mM Tris-HCl (pH 7.5), EDTA (1 mM), MgCl2 (5 mM), NaCl (50 mM), DTT (1 mM), BSA (0.01%)

[2] = target: T2, HCV polymerase (NS5B) type 1a (Hepatitis C virus genotype 1a, UniProt P26664); experiment: Assay of enzyme (HCV polymerase) inhibitory activity, type 1a enzyme; type: biochemical, HCV type 1a (cloned from the blood of patients); conditions: HCV polymerase inhibitory activity (IC50), 1a, type 1a enzyme 1.5 μg/ml, 25° C., 60 min
T2 construct: made in house; host or cells: Escherichia coli (by the 'similar method' of the 1b enzyme)
From the text: as §1, §2, §3
Standard enzyme products for type 1a (cloned from the blood of patients) were also obtained by a similar method.
as §4, §5, §6, §7, §8, §9, §10
The HCV polymerase inhibitory activity (IC50) of the compound of the present invention was calculated from the values of radioactivity of the enzyme reaction with and without the test substance. […]

SMILES | IC50 [1] | IC50 [2]
CC(C)c1ccc(CNC(=O)[C@H]2CNCCN2S(=O)(=O)c2ccc(C(F)(F)F)cc2)cc1 [Example 1, (R)-1-(4-trifluoromethyl-benzenesulfonyl)-piperazine-2-carboxylic acid 4-isopropyl-benzylamide hydrochloride] | > 1000 nM | > 1000 nM
CC(C)c1ccc(CNC(=O)[C@H]2CN(C(=O)Cc3ccncc3)CCN2S(=O)(=O)c2ccc(C(F)(F)F)cc2)cc1 [Example 2, (R)-4-(2-pyridin-4-yl-acetyl)-1-(4-trifluoromethyl-benzenesulfonyl)-piperazine-2-carboxylic acid 4-isopropyl-benzylamide] | 100 to 1000 nM | 100 to 1000 nM
CC(C)c1ccc(CNC(=O)[C@H]2CN(C(=O)Nc3ccncc3)CCN2S(=O)(=O)c2ccc(C(F)(F)F)cc2)cc1 [Example 3, (R)-4-(4-trifluoromethyl-benzenesulfonyl)-piperazine-1,3-dicarboxylic acid 3-(4-isopropyl-benzylamide) 1-pyridin-4-ylamide] | < 100 nM | < 100 nM
CC(C)c1ccc(CNC(=O)[C@H]2CN(C(N)=S)CCN2S(=O)(=O)c2ccc(C(F)(F)F)cc2)cc1 [Example 4, (R)-4-thiocarbamoyl-1-(4-trifluoromethyl-benzenesulfonyl)-piperazine-2-carboxylic acid 4-isopropyl-benzylamide] | 100 to 1000 nM | 100 to 1000 nM
Cc1nc(N2CCN(S(=O)(=O)c3ccc(C(F)(F)F)cc3)[C@@H](C(=O)NCc3ccc(C(C)C)cc3)C2)sc1C(=O)OC(C)(C)C [Example 5, 2-[(R)-3-(4-isopropyl-benzylcarbamoyl)-4-(4-trifluoromethyl-benzenesulfonyl)-piperazin-1-yl]-4-methyl-thiazole-5-carboxylic acid tert-butyl ester] | > 1000 nM | > 1000 nM
Cc1nc(N2CCN(S(=O)(=O)c3ccc(C(F)(F)F)cc3)[C@@H](C(=O)NCc3ccc(C(C)C)cc3)C2)sc1C(=O)O [Example 6, 2-[(R)-3-(4-isopropyl-benzylcarbamoyl)-4-(4-trifluoromethyl-benzenesulfonyl)-piperazin-1-yl]-4-methyl-thiazole-5-carboxylic acid] | < 100 nM | < 100 nM
Cc1nc(N2CCN(S(=O)(=O)c3ccc(C(F)(F)F)cc3)[C@@H](C(=O)NCc3ccc(C(C)C)cc3)C2)sc1C(N)=O [Example 7, (R)-4-(5-carbamoyl-4-methyl-thiazol-2-yl)-1-(4-trifluoromethyl-benzenesulfonyl)-piperazine-2-carboxylic acid 4-isopropyl-benzylamide] | < 100 nM | < 100 nM
COC(=O)c1cnc(N2CCN(S(=O)(=O)c3ccc(C(F)(F)F)cc3)[C@@H](C(=O)NCc3ccc(C(C)C)cc3)C2)cn1 [Example 8, (R)-3-(4-isopropyl-benzylcarbamoyl)-4-(4-trifluoromethyl-benzenesulfonyl)-3,4,5,6-tetrahydro-2H-[1,2′]bipyrazinyl-5′-carboxylic acid methyl ester] | < 100 nM | < 100 nM
CC(C)c1ccc(CNC(=O)[C@H]2CN(c3cnc(C(=O)O)cn3)CCN2S(=O)(=O)c2ccc(C(F)(F)F)cc2)cc1 [Example 9, (R)-3-(4-isopropyl-benzylcarbamoyl)-4-(4-trifluoromethyl-benzenesulfonyl)-3,4,5,6-tetrahydro-2H-[1,2′]bipyrazinyl-5′-carboxylic acid] | < 100 nM | < 100 nM
CC(=O)N1CCN(S(=O)(=O)c2ccc(OC(F)(F)F)c(I)c2)[C@@H](C(=O)NCc2ccc(C(C)C)cc2)C1 [Example 10, (R)-4-acetyl-1-(3-iodo-4-trifluoromethoxy-benzenesulfonyl)-piperazine-2-carboxylic acid 4-isopropyl-benzylamide] | < 100 nM | < 100 nM
CC(=O)N1CCN(S(=O)(=O)c2ccc(OC(F)(F)F)c(CCCC(=O)O)c2)[C@@H](C(=O)NCc2ccc(C(C)C)cc2)C1 [Example 11, 4-{5-[(R)-4-acetyl-2-(4-isopropyl-benzylcarbamoyl)-piperazine-1-sulfonyl]-2-trifluoromethoxy-phenyl}-butyric acid] | < 100 nM | < 100 nM
CCCc1ccc(CNC(=O)[C@H]2CN(C(C)=O)CCN2S(=O)(=O)c2ccc(C(C)C)cc2)c(C)c1 [Example 12, (R)-4-acetyl-1-(4-isopropyl-benzenesulfonyl)-piperazine-2-carboxylic acid 2-methyl-4-propyl-benzylamide] | < 100 nM | < 100 nM
Cc1nc(N2CCN(S(=O)(=O)c3ccc(OC(F)(F)F)cc3)[C@@H](C(=O)NCc3ccc(C(C)C)nc3)C2)sc1C(=O)O [Example 13, 2-[(R)-3-[(6-isopropyl-pyridin-3-ylmethyl)-carbamoyl]-4-(4-trifluoromethoxy-benzenesulfonyl)-piperazin-1-yl]-4-methyl-thiazole-5-carboxylic acid] | < 100 nM | < 100 nM
CCCc1ccc(CNC(=O)[C@H]2CN(c3nc(C)c(C(=O)O)s3)CCN2S(=O)(=O)c2ccc(OC(F)(F)F)cc2F)cc1 [Example 14, 2-[(R)-4-(2-fluoro-4-trifluoromethoxy-benzenesulfonyl)-3-(4-propyl-benzylcarbamoyl)-piperazin-1-yl]-4-methyl-thiazole-5-carboxylic acid] | < 100 nM | < 100 nM
CC(C)c1ccc(S(=O)(=O)N2CCNCC2C(=O)NCc2ccc(C(F)(F)F)cc2)cc1 (centres unmarked) [Example 15, 1-(4-isopropyl-benzenesulfonyl)-piperazine-2-carboxylic acid 4-trifluoromethyl-benzylamide hydrochloride] | > 1000 nM | > 1000 nM
CC(C)c1ccc(S(=O)(=O)N2CCN(C)CC2C(=O)NCc2ccc(C(F)(F)F)cc2)cc1 (centres unmarked) [Example 16, 1-(4-isopropyl-benzenesulfonyl)-4-methyl-piperazine-2-carboxylic acid 4-trifluoromethyl-benzylamide] | > 1000 nM | > 1000 nM
CC(C)c1ccc(S(=O)(=O)N2CCN(S(C)(=O)=O)CC2C(=O)NCc2ccc(C(F)(F)F)cc2)cc1 (centres unmarked) [Example 17, 1-(4-isopropyl-benzenesulfonyl)-4-methanesulfonyl-piperazine-2-carboxylic acid 4-trifluoromethyl-benzylamide] | > 1000 nM | > 1000 nM
CC(=O)N1CCN(S(=O)(=O)c2ccc(C(C)C)cc2)[C@@H](C(=O)NCc2ccc(C(F)(F)F)cc2)C1 [Example 18, (R)-4-acetyl-1-(4-isopropyl-benzenesulfonyl)-piperazine-2-carboxylic acid 4-trifluoromethyl-benzylamide] | 100 to 1000 nM | 100 to 1000 nM
CC(=O)N1CCN(S(=O)(=O)c2ccc(C(C)C)cc2)[C@H](C(=O)NCc2ccc(C(F)(F)F)cc2)C1 [Example 19, (S)-4-acetyl-1-(4-isopropyl-benzenesulfonyl)-piperazine-2-carboxylic acid 4-trifluoromethyl-benzylamide] | > 1000 nM | > 1000 nM
